One data set has as its system S. enteritidis G14. In words: Antibacterial activity, agar plate dilution method (MIC). The data set is classed as cell-based. Conditions: Salmonella enterica, 37° C., 18 hours. Here is the method: (§1) Antibacterial activity was tested by using an agar plate dilution method in accordance with the standard method of the Japanese Chemotherapy Society [Chemotherapy, vol. 29, 76-79 (1981)].
(§2) Mueller-Hinton (MH) agar liquid media of the test microorganisms were cultured overnight at 37° C. and the resultant culture media were diluted with a buffered saline gelatin (BSG) solution to contain approximately 10^5 cells of the test microorganisms per milliliter. Then, about 5 microliters each of the diluted solutions were inoculated on MH agar media containing the test compound by using a microplanter.
(§3) The test microorganism strains used in this test were all standard ones. The test compound used herein was Compound (22) obtained in Preparation 6, i.e., the compound of formula (II), which is the active metabolite of the compounds of formula (I).

For a further data set, the system named is P. mirabilis IFO 3849. The description is as above. The data set is classed as cell-based. Particulars: Proteus mirabilis, IFO3849, 37° C., 18 hours. Here is the method:
as §1, §2, §3

The next data set has as its system P. vulgaris OX-19. The description is as above. The format is cell-based. Conditions: Proteus vulgaris, OX19, 37° C., 18 hours. Here is the method:
as §1, §2, §3

The subject of the next data set is E. coli NIHJ JC-2. The data set is described as above. The data set is classed as cell-based. Particulars: Escherichia coli, NIHJJC2, 37° C., 18 hours. Here is the method: as §1, §2, §3
In a further data set the test system is E. cloacae 963. The data set is described as above. The data set is classed as cell-based. Particulars: Enterobacter cloacae, 37° C., 18 hours. Here is the method:
as §1, §2, §3

The next data set deals with K. pneumoniae PCI-602. Described as above. The format is cell-based. Particulars: Klebsiella pneumoniae, PCI602, 37° C., 18 hours. Here is the method: as §1, §2, §3
The test system of another data set is S. schottmuelleri 8006. The data set is described as above. The format is cell-based. Particulars: 37° C., 18 hours. As to the method:
as §1, §2, §3

A further data set has as its system S. typhimurium 11D971. The data set is described as above. The data set is classed as cell-based. Particulars: Salmonella enterica, 37° C., 18 hours. As to the method: as §1, §2, §3
A further data set relates to S. aureus Terajima. The data set is described as above. The data set is classed as cell-based. Particulars: Staphylococcus aureus, 37° C., 18 hours. Here is the method:
as §1, §2, §3

Another data set has as its system S. pyogenes Cook. The description is as above. The data set is classed as cell-based. Conditions: Streptococcus pyogenes, 37° C., 18 hours. Here is the method:
as §1, §2, §3

The next data set deals with P. rettgeri IFO 3850. The data set is described as above. The data set is classed as cell-based. Conditions: Providencia rettgeri, IFO3850, 37° C., 18 hours. Here is the method:
as §1, §2, §3

The test system of the next data set is M. morganii IFO 3848. The description is as above. The data set is classed as cell-based. Conditions: Morganella morganii, IFO3848, 37° C., 18 hours. Here is the method:
as §1, §2, §3

The test system of another data set is B. subtilis ATCC 6633. The description is as above. The format is cell-based. Particulars: Bacillus subtilis, ATCC6633, 37° C., 18 hours. Here is the method: as §1, §2, §3
Another data set concerns S. paratyphi 1015. Described as above. Particulars: Salmonella enterica, 18 h. The format is cell-based. Here is the method: as §1, §2, §3
A further data set has as its system S. aureus MS353. The description is as above. The format is cell-based. Conditions: Staphylococcus aureus, 37° C., 18 hours. As to the method:
as §1, §2, §3

Another data set has as its system M. luteus ATCC 9341. The data set is described as above. The data set is classed as cell-based. Particulars: Micrococcus luteus, ATCC9341, 37° C., 18 hours. As to the method:
as §1, §2, §3

The test system of the next data set is P. vulgaris HX-19. The description is as above. The format is cell-based. Particulars: Proteus vulgaris, HX19, 37° C., 18 hours. Here is the method:
as §1, §2, §3

A further data set concerns S. aureus FDA209P JC-1. Described as above. The format is cell-based. Particulars: Staphylococcus aureus, 37° C., 18 hours. As to the method:
as §1, §2, §3

The test system of the next data set is S. marcescens IAM 1184. The data set is described as above. Particulars: Serratia marcescens, IAM1184, 37° C., 18 hours. The format is cell-based. Here is the method:
as §1, §2, §3

The subject of the next data set is E. aerogenes ATCC 13048. Described as above. The data set is classed as cell-based. Conditions: Klebsiella aerogenes, ATCC13048, 37° C., 18 hours. As to the method: as §1, §2, §3
The subject of another data set is E. coli K-12 C600. The description is as above. The format is cell-based. Conditions: Escherichia coli, K12C600, 37° C., 18 hours. As to the method:
as §1, §2, §3

For another data set, the system named is S. typhi 901. Described as above. The data set is classed as cell-based. Conditions: Salmonella enterica, 18 h. As to the method:
as §1, §2, §3

The nature of data set [1]: Stability Test (storage stability, residual activity by HPLC). The data set is classed as physicochemical. Particulars: for Residual activity, initial day: assumed to be 100%; for Residual activity, 1 month: 43800 min; for Residual activity, 3 months: 131400 min; for Retention of potency on storage: conclusion from Table 2; for Residual activity, 1 month / remaining at 730 h: 1 month. As to the method: Storage stability of (1-methylcyclohexane-carboxy)methyl (1R,5S,6S)-2-[(1-(1,3-thiazolin-2-yl)azetidin-3-yl)thio]-6-[(R)-1-hydroxyethyl]-1-methyl-carbapen-2-em-3-carboxylate [Compound (24)] was tested in comparison with its amorphous form and (cyclohexanecarboxy)methyl (1R,5S,6S)-2-[(1-(1,3-thiazolin-2-yl)azetidin-3-yl)thio]-6-[(R)-1-hydroxyethyl]-1-methyl-carbapen-2-em-3-carboxylate [Compound (C)], which is disclosed in European Patent Publication 632,039 A1.
Each compound in an amount of 20 mg was put in a glass bottle, and left to stand for 3 months in a constant-temperature chamber at 40° C. and at 40° C. /75% of humidity. The activity of each compound was assayed by HPLC after 1 month and 3 months, respectively. Assuming the activity at the beginning (initial day) to be 100%, the decrease in the activity is shown by percent residual activity in Table 2.

The mark [2] stands for this setting: 40° C., HPLC, initial day = 100%.
Setting [3] is: 40° C., 3 months, HPLC, initial day = 100%.
[4] abbreviates: solid storage, 40° C./75% humidity, HPLC, initial day = 100%.

Converted amounts (≈) assume the structure as drawn.

This is an account of results in US5886172A, “Carbapenem-3-carboxylic acid ester derivatives” (Lederle (Japan) Ltd., priority 1995, dated 1999).

As a reminder, the MIC is the smallest concentration in the dilution series that meets the test's criterion for growth inhibition. The low end stands for inhibition by little substance, the high end for a need for much substance. As to `C[C@@H](O)[C@H]1C(=O)N2C(C(=O)O)=C(SC3CN(C4=NCCS4)C3)[C@H](C)[C@H]12` [Compound (22), (1R,5S,6S)-2-[(1-(thiazolin-2-yl)azetidin-3-yl)thio]-6-[(R)-1-hydroxyethyl]-1-methyl-carbapen-2-em-3-carboxylic acid], the MIC in the data set on S. enteritidis G14 amounted to 0.39 mg/L (≈ 1.02 µM); in the data set on P. mirabilis IFO 3849, 0.39 mg/L (≈ 1.02 µM); against P. vulgaris OX-19, 0.1 mg/L (≈ 0.261 µM); in the data set on E. coli NIHJ JC-2, 0.013 mg/L (≈ 0.0339 µM); against E. cloacae 963, 0.05 mg/L (≈ 0.13 µM); in the data set with K. pneumoniae PCI-602, 0.013 mg/L (≈ 0.0339 µM). Also, the minimum inhibitory concentration (MIC) in the data set with S. schottmuelleri 8006 was 0.025 mg/L (≈ 0.0652 µM); with S. typhimurium 11D971, 0.025 mg/L (≈ 0.0652 µM); against S. aureus Terajima it was at most 0.006 mg/L; in the data set with S. pyogenes Cook, at most 0.006 mg/L; against P. rettgeri IFO 3850, 0.39 mg/L (≈ 1.02 µM); with M. morganii IFO 3848 it was 0.39 mg/L (≈ 1.02 µM). For the same compound, the MIC was 0.025 mg/L (≈ 0.0652 µM) against B. subtilis ATCC 6633; 0.05 mg/L (≈ 0.13 µM) with S. paratyphi 1015; at most 0.006 mg/L against S. aureus MS353; 0.2 mg/L (≈ 0.522 µM) with M. luteus ATCC 9341; 0.1 mg/L (≈ 0.261 µM) in the data set on P. vulgaris HX-19; 0.013 mg/L (≈ 0.0339 µM) in the data set on S. aureus FDA209P JC-1. Moreover, the MIC in the data set with S. marcescens IAM 1184 was 0.05 mg/L (≈ 0.13 µM); against E. aerogenes ATCC 13048 it was 0.1 mg/L (≈ 0.261 µM); in the data set on E. coli K-12 C600 it was 0.1 mg/L (≈ 0.261 µM); in the data set on S. typhi 901, at most 0.006 mg/L.
For the compound `C[C@@H](O)[C@H]1C(=O)N2C(C(=O)OCOC(=O)C3(C)CCCCC3)=C(SC3CN(C4=NCCS4)C3)[C@H](C)[C@H]12` [Compound (24) (Amorphous), (1-methylcyclohexane-carboxy)methyl (1R,5S,6S)-2-[(1-(1,3-thiazolin-2-yl)azetidin-3-yl)thio]-6-[(R)-1-hydroxyethyl]-1-methyl-carbapen-2-em-3-carboxylate], the “Residual activity, initial day” value in [1] (40° C./75% humidity) and in data set [1] (40° C.) was 100% each time. Besides, in data set [1] (setting [2]), the “Residual activity, 1 month” value was found to be 67.5%. For the same compound, the “Residual activity, 3 months” value in [1] (setting [3]) is recorded as 36.8%. For the same compound, in data set [1] (listed as amorphous form), the “Retention of potency on storage” value is on record as “rapidly loses its potency”.
For orientation: share remaining means what is left of the initial amount, in per cent. For `C[C@@H](O)[C@H]1C(=O)N2C(C(=O)OCOC(=O)C3(C)CCCCC3)=C(SC3CN(C4=NCCS4)C3)[C@H](C)[C@H]12` [Compound (24) (Crystalline), (1-methylcyclohexane-carboxy)methyl (1R,5S,6S)-2-[(1-(1,3-thiazolin-2-yl)azetidin-3-yl)thio]-6-[(R)-1-hydroxyethyl]-1-methyl-carbapen-2-em-3-carboxylate], the “Residual activity, initial day” value in data set [1] (40° C./75% humidity) and in [1] (40° C.) was 100% throughout. Further, the “Residual activity, 1 month” value in data set [1] (setting [2]) was 99.4%. Also, the “Residual activity, 3 months” value in data set [1] (setting [3]) worked out at 99.2%. Further, the “Retention of potency on storage” value in data set [1] (listed as crystalline form of Compound (24)) is “retains its potency over a long period of time”. In [1] (setting [4]), this compound had an amount remaining at 730 h of 98.9%.
For the compound `C[C@@H](O)[C@H]1C(=O)N2C(C(=O)OCOC(=O)C3CCCCC3)=C(SC3CN(C4=NCCS4)C3)[C@H](C)[C@H]12` [Compound (C) (Crystalline), (cyclohexanecarboxy)methyl (1R,5S,6S)-2-[(1-(1,3-thiazolin-2-yl)azetidin-3-yl)thio]-6-[(R)-1-hydroxyethyl]-1-methyl-carbapen-2-em-3-carboxylate, reference compound], the “Residual activity, initial day” value in data set [1] (40° C./75% humidity) and in [1] (40° C.) was 100% throughout. Also, the fraction remaining at 730 h in [1] (setting [4]) came out at 73.7%; in data set [1] (solid storage, 40° C., HPLC, initial day = 100%), 98.9%. Also, in data set [1] (solid storage, 40° C., 3 months, HPLC, initial day = 100%), the share remaining at 2190 h came to 94.2%.
